In patent US7179461B2, “Plasminogen activator to prevent corneal and subepithelial haze after laser vision correction surgery” (The Johns Hopkins University, priority 2000, dated 2007):
Read-outs that look alike come from different tables or passages of the source. One block for each compound: values may come before it.

Tests used:
[1] = tested on: corneal haze after PRK; conditions: rabbits, excimer laser PRK; cited from earlier work
[2] = tested on: rabbit corneal endothelium; conditions: perfused in vitro for three hours, concentrations up to 5,000 IU/ml; cited from earlier work
[3] = biological target: T1, urokinase-type plasminogen activator (uPA) in rabbit tears (Oryctolagus cuniculus, UniProt Q8MHY7); assay: Plasminogen activator activity in rabbit tears after PRK, spectrophotometric method with human plasminogen and S-2251; type: in vivo, New Zealand rabbits
T1 construct: from tissue; host or cells: rabbit tear fluid collected with glass capillaries
Protocol: Both eyes in each of 8 rabbits underwent PRK treatment. One eye of each rabbit was treated with a serine protease inhibitor (SPI) over the first 7 days to inactivate uPA in the tears and on the surface of the cornea. uPA in the tear samples was measured by a spectrophotometric method using human plasminogen and chromogenic peptide substrate S-2251.
Materials and Methods Sixteen eyes of eight normal healthy New Zealand rabbits (3.0–3.5 kg) underwent PRK surgery for spherical correction using the Schwind Keratom II ArF excimer laser (193 nm), performed by the same surgeon at Vital-Laser LLC, Department of Ophthalmology, University Medical School of Debrecen. Animals were handled and treated in adherence to the ARVO Statement for the Use of Animals in Ophthalmic and Vision Research. De-epithelialization was performed with a blunt Keratome Blade knife after epithelial marking with a 6.0–6.5 mm Hoffer trephine. The epithelium was scraped gently from periphery to center. Residual epithelial debris was removed with a sterile microsponge.
Topical anesthetic (0.4% oxybuprocaine hydrochloride) eye drops were administered twice before the surgery. General anesthesia was accomplished by intravenous injection of ketamine-xylazine (2.2:1 ratio, 10 mg/kg). The PRK surgeries were performed on the morning of day 1. The postoperative treatment included antibiotic eye drops, Ciloxan (Alcon), twelve times (hourly) on day 1 and five times (every two hours) on five additional days (postoperative days 2–5 and 7). FLUCON™ (Alcon) and TEARS NATURALE™ (Alcon) were given 5 times daily (every two hours) during the first postoperative month, reduced to 4 times daily (every three hours) for the second month and 3 times daily (every four hours) for the third month. All rabbits received follow-up examinations at 1, 3 and 6 months following the PRK procedure.
In addition, the left eye of each rabbit received 1 drop of 10,000 KIE/ml serine protease inhibitor (SPI), aprotinin (Gordox, Richter Gideon Rt., Budapest), twelve times (hourly) on day 1 and five times (every two hours) on five additional days (postoperative days 2–5 and 7). This was designated the “With-SPI” group. The right eyes were not treated with SPI and were designated the “No-SPI” group. After the seventh day, identical treatment was used on both eyes. No other treatment was used during the six month follow-up period. […] Lottenberg R, Sjak-Shie N, Fazleabas A T, Roberts R M. Aprotinin inhibits urokinase but not tissue-type plasminogen activator. Thromb Res 1988;49:549–556; and Fritz H, Wunderer G. Biochemistry and applications of aprotinin, the kallikrein inhibitor from bovine organs. Arzneim Forsch 1983;33:479–494.
Tear samples for plasminogen activator activity analyses were obtained on the day before the PRK surgery (day 0). Tear samples were collected within minutes after PRK (day 1), before treatment with any eye drops. Daily on postoperative days 2–5, on postoperative day 7 and every fourth day thereafter for three months (91 days), tears were sampled in the morning prior to the administration of any eye drops on the given day so that SPI treatment would not change the uPA levels.
Samples consisted of tears collected with glass capillaries using i.m. injection of pilocarpine hydrochloride (5 mg/kg) for stimulation. Tears were taken from the lower tear meniscus and care was taken not to touch the conjunctiva. The same collection method was used throughout the study. The duration of the sampling time was recorded and the secretion rate was calculated in μl/min, dividing the obtained tear volume by the time of sample collection. Samples used in this investigation had secretion rates of 15–50 μl/min. Samples were centrifuged (1800 rpm) for 8–10 minutes right after sample collection and supernatants were immediately deep-frozen at −80° C. and were thawed only once for measurements. […]

[4] = biological target: urokinase-type plasminogen activator (Homo sapiens, UniProt P00749); conditions: cited from earlier work

T1 sequence (Q8MHY7 17-433): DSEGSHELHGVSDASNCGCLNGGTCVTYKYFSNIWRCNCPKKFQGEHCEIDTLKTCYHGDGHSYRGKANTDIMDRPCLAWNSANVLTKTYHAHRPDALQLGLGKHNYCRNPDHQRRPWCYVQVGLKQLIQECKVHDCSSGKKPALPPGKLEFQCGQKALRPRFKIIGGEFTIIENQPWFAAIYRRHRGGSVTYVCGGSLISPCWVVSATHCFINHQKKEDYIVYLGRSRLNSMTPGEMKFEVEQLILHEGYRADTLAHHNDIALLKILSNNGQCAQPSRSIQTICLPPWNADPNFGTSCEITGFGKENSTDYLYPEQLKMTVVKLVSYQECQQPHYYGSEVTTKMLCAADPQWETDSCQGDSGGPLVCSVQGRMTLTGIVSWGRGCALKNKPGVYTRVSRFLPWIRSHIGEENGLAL

Compound: CO[C@@]12[C@H](COC(N)=O)C3=C(C(=O)C(C)=C(N)C3=O)N1C[C@@H]1N[C@@H]12 [mitomycin C]
Effect on corneal haze after PRK [1]: reduce haze after PRK

Compound: urokinase
Endothelial mosaic under scanning electron microscopic scrutiny [2]: retains a normal endothelial mosaic
Swelling of rabbit corneas [2]: does not induce meaningful swelling
Toxicity to rabbit corneal endothelium [2]: non-toxic

Day by which mean uPA levels returned to preoperative levels ([3]; SPI-treated rabbit eyes, SPI over first 7 days): 15 days
uPA activity, mean value averaged over days 1–7 ([3]; SPI-treated rabbit eyes, period of SPI suppression): 0.13 (0.15) IU/ml
Mean uPA activity on days 1–7 lower than the equilibrium plasminogen activator activity level ([3]; SPI-treated rabbit eyes, versus days 19–91 level, p<0.001): 95%
PAA: With-SPI, mean (SD), equilibrium level ([3]; averaged over days 19–91, rabbit tears): 2.88 (0.22) IU/ml
PAA: With-SPI, mean (SD) ([3]; day 0 (day before PRK, before SPI), rabbit tears, 8 eyes): 2.77 (0.26) IU/ml
PAA: With-SPI, mean (SD) ([3]; day 1 (within minutes after PRK, before eye drops), rabbit tears): 0.42 (0.47) IU/ml
PAA: With-SPI, mean (SD) ([3]; day 2, rabbit tears, sampled in the morning before SPI drops, 10,000 KIE/ml SPI): 0.18 (0.21) IU/ml
PAA: With-SPI, mean (SD) ([3]; day 3, rabbit tears, sampled before SPI drops): 0.04 (0.03) IU/ml
PAA: With-SPI, mean (SD) ([3]; day 4, rabbit tears, sampled before SPI drops): 0.03 (0.04) IU/ml
PAA: With-SPI, mean (SD) ([3]; day 5, rabbit tears, sampled before SPI drops): 0.05 (0.05) IU/ml
PAA: With-SPI, mean (SD) ([3]; day 7, rabbit tears, sampled before SPI drops): 0.05 (0.04) IU/ml
PAA: With-SPI, mean (SD) ([3]; day 11 (after end of SPI treatment), rabbit tears): 2.63 (0.18) IU/ml
PAA: With-SPI, mean (SD) ([3]; day 15, rabbit tears): 2.76 (0.18) IU/ml
Compound: aprotinin [SPI]
Inhibition of plasminogen activator (urokinase) activity [4]: effective inhibitor of plasminogen activator activity
Inhibition of plasminogen activator (urokinase) activity ([4]; listed as Aprotinin): especially effective for inhibiting urokinase
